For this experiment, the target named is T1, human PAR4 (Homo sapiens, UniProt Q96RI0).
T1 construct: expressed in transfected cells; host or cells: HEK293 PAR4 Clone 1.2A (BMS Arctic ID 383940)
T1 sequence (Q96RI0 18-385): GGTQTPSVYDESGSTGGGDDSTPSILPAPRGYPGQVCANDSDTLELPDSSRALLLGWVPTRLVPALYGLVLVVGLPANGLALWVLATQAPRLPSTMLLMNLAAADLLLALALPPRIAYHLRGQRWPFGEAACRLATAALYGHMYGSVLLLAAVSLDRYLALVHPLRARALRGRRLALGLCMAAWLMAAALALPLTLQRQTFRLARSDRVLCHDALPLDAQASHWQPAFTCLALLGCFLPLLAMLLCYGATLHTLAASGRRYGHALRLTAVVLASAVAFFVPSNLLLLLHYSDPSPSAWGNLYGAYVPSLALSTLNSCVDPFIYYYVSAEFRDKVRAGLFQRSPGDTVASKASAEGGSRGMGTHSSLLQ
The experiment can be described thus: PAR4 FLIPR assay: antagonism of agonist-peptide-induced calcium mobilization in PAR4-expressing HEK293 cells. The format is cell-based. The conditions noted are these: H-Ala-Phe(4-F)-[…]NH2-induced intracellular calcium mobilization, 11-point curves. (Calcium flux is commonly read through the fluorescence of an indicator in the cells.)

Molecules are shown by their SMILES. Structures can show the parent of a compound that is named as a salt.

As for `COc1cnc2c(-c3nc4cc(F)c(O[C@@H](C)[C@@H](C)OC(=O)Nc5cnc(C)c(C)c5)cc4s3)cc(Cl)cc2c1` [Example 787, (2R,3S)-3-((2-(6-chloro-3-methoxyquinolin-8-yl)-5-fluorobenzo[d]thiazol-6-yl)oxy)butan-2-yl (5,6-dimethylpyridin-3-yl)carbamate], the concentration for half-maximal inhibition (IC50) stood at 2.9 nM.

Take `COc1cnc2c(-c3nc4c(Cl)c(F)c(OC)cc4s3)cc(CO)cc2n1` [Example 218, (8-(4-chloro-5-fluoro-6-methoxybenzo[d]thiazol-2-yl)-3-methoxyquinoxalin-6-yl)methanol]: the IC50 is 2.5 nM.

Consider `CCOc1cnc2c(-c3nc4cc(F)c(O[C@@H](C)[C@@H](C)OC(=O)Nc5cnc(CO)nc5)cc4s3)cc(C)cc2n1` [Example 529, (2R,3S)-3-((2-(2-ethoxy-7-methylquinoxalin-5-yl)-5-fluorobenzo[d]thiazol-6-yl)oxy)butan-2-yl (2-(hydroxymethyl)pyrimidin-5-yl)carbamate], for which the IC50 stood at 0.9 nM.

Take `COc1cc(C)c2nc(-c3cc(C)cc4nc(C(F)(F)OC)cnc34)sc2c1` [Example 186, 2-(2-(difluoro(methoxy)methyl)-7-methylquinoxalin-5-yl)-6-methoxy-4-methylbenzo[d]thiazole]: the IC50 came to 17 nM.

Consider `COCc1cnc2c(-c3nc4c(OC)c(F)c(Cl)cc4s3)cc(C)cc2n1` [Example 313, 6-chloro-5-fluoro-4-methoxy-2-(2-(methoxymethyl)-7-methylquinoxalin-5-yl) benzo[d]thiazole], for which the IC50 came out at 2.9 nM.

In the case of `COc1cnc2c(-c3nc4cc(F)c(O[C@@H](C)[C@@H](C)OC(=O)Nc5cnc(O[C@H](C)CO)nc5)cc4s3)cc(C)cc2n1` [Example 554, (2R,3S)-3-((5-fluoro-2-(2-methoxy-7-methylquinoxalin-5-yl)benzo[d]thiazol-6-yl)oxy)butan-2-yl (2-(((R)-1-hydroxypropan-2-yl)oxy)pyrimidin-5-yl)carbamate], the IC50 turned out to be 0.7 nM.

Regarding `COc1cnc2c(-c3nc4cc(F)c(O[C@@H](C)[C@@H](C)OC(=O)Nc5ccnc(C(=O)NCCO)c5)cc4s3)cc(C)cc2n1` [Example 451, (2R,3S)-3-((5-fluoro-2-(2-methoxy-7-methylquinoxalin-5-yl)benzo[d]thiazol-6-yl)oxy)butan-2-yl (2-((2-hydroxyethyl)carbamoyl)pyridin-4-yl)carbamate], the IC50 is 0.7 nM.

On to `COc1cnc2c(-c3nc4cc(F)c(OC[C@@H](C)OC(=O)Nc5ccc(C(=O)N6CCO[C@@H](CO)C6)nc5)cc4s3)cc(C)cc2n1` [Example 480, (R)-1-((5-fluoro-2-(2-methoxy-7-methylquinoxalin-5-yl)benzo[d]thiazol-6-yl)oxy)propan-2-yl (6-((R)-2-(hydroxymethyl)morpholine-4-carbonyl)pyridin-3-yl)carbamate], for which the IC50 turned out to be 3.4 nM.

`COc1cnc2c(-c3nc4cc(F)c(O[C@@H](C)[C@@H](C)OC(=O)Nc5cnc(C(=O)NC[C@@H](C)O)nc5)nc4s3)cc(C)cc2n1` [Example 752, (2R,3S)-3-((6-fluoro-2-(2-methoxy-7-methylquinoxalin-5-yl)thiazolo[5,4-b]pyridin-5-yl)oxy)butan-2-yl (2-(((R)-2-hydroxypropyl)carbamoyl)pyrimidin-5-yl)carbamate]: the IC50 came out at 14 nM.

Turning to `COc1cnc2c(-c3nc4cc(F)c(O[C@@H](C)[C@@H](C)OC(=O)Nc5cnc(C(=O)NCC(C)(C)O)nc5)cc4s3)cc(C)cc2n1` [Example 457, (2R,3S)-3-((5-fluoro-2-(2-methoxy-7-methylquinoxalin-5-yl)benzo[d]thiazol-6-yl)oxy)butan-2-yl (2-((2-hydroxy-2-methylpropyl)carbamoyl)pyrimidin-5-yl)carbamate], the IC50 worked out at 0.4 nM.

For `COc1cnc2c(-c3nc4cc(F)c(O[C@@H](C)[C@@H](C)OC(=O)Nc5cnc(C)nc5)cc4s3)cc(CF)cc2c1` [Example 654, (2R,3S)-3-((5-fluoro-2-(6-(fluoromethyl)-3-methoxyquinolin-8-yl)benzo[d]thiazol-6-yl)oxy)butan-2-yl (2-methylpyrimidin-5-yl)carbamate], the IC50 stood at 1 nM.

On to `Cc1cc(-c2nc3cc(F)c(O[C@@H](C)[C@@H](C)OC(=O)Nc4cnc(C)nc4)cc3s2)c2ncc(OC(C)C)nc2c1` [Example 492, (2R,3S)-3-((5-fluoro-2-(2-isopropoxy-7-methylquinoxalin-5-yl)benzo[d]thiazol-6-yl)oxy) butan-2-yl (2-methylpyrimidin-5-yl)carbamate], for which the IC50 amounted to 7.4 nM.

Take `COc1cccc2oc(-c3cc(C)cc4nc(OC(F)F)cnc34)cc12` [Example 42, 2-(difluoromethoxy)-5-(4-methoxybenzofuran-2-yl)-7-methylquinoxaline]: the IC50 is 5.2 nM.

Consider `COc1cnc2c(-c3nc4cc(F)c(O[C@@H](C)[C@@H](C)OC(=O)Nc5ccc(OCC(F)(F)CO)nc5)cc4s3)cc(C)cc2n1` [Example 573, (2R,3S)-3-((5-fluoro-2-(2-methoxy-7-methylquinoxalin-5-yl)benzo[d]thiazol-6-yl)oxy)butan-2-yl (6-(2,2-difluoro-3-hydroxypropoxy)pyridin-3-yl)carbamate], for which the IC50 amounted to 1.6 nM.

As to `COc1cnc2c(-c3nc4cc(F)c(O[C@@H](C)[C@@H](C)OC(=O)Nc5cncnc5)cc4s3)cc(C)cc2n1` [Example 410, (2R,3S)-3-((5-fluoro-2-(2-methoxy-7-methylquinoxalin-5-yl)benzo[d]thiazol-6-yl)oxy)butan-2-yl pyrimidin-5-ylcarbamate], the IC50 turned out to be 0.3 nM.

In the case of `COCc1cnc2c(-c3nc4c(OC)c(F)c(OC)cc4s3)cc(C)cc2n1` [Example 271, 5-fluoro-4,6-dimethoxy-2-(2-(methoxymethyl)-7-methylquinoxalin-5-yl)benzo[d]thiazole], the IC50 was found to be 1.5 nM.

Consider `COC(=O)c1ccc(NC(=O)O[C@H](C)COc2nc3sc(-c4cc(C)cc5nc(OC)cnc45)nc3cc2F)cn1` [Example 690, methyl (R)-5-((((1-((6-fluoro-2-(2-methoxy-7-methylquinoxalin-5-yl)thiazolo[5,4-b]pyridin-5-yl)oxy)propan-2-yl)oxy)carbonyl)amino)picolinate], for which the IC50 is 0.3 nM.

As for `COc1cnc2c(-c3nc4cc(F)c(O[C@@H](C)[C@@H](C)OC(=O)Nc5cnc(O[C@H](C)CO)nc5)nc4s3)cc(C)cc2n1` [Example 722, (2R,3S)-3-((6-fluoro-2-(2-methoxy-7-methylquinoxalin-5-yl)thiazolo[5,4-b]pyridin-5-yl)oxy)butan-2-yl (2-(((R)-1-hydroxypropan-2-yl)oxy)pyrimidin-5-yl)carbamate], the IC50 was 1.4 nM.

With `COc1cnc2c(-c3nc4c(C)cc(OCCNS(=O)(=O)c5ccc(C)cc5)nc4s3)cc(C)cc2n1` [Example 762, N-(2-((2-(2-methoxy-7-methylquinoxalin-5-yl)-7-methylthiazolo[5,4-b]pyridin-5-yl)oxy)ethyl)-4-methylbenzenesulfonamide], the IC50 is 1.4 nM.

`COC(=O)c1cc(NC(=O)OCCOc2cc3sc(-c4cc(C)cc5nc(OC)cnc45)nc3c(Cl)c2F)cn1C` [Example 378, methyl 4-(((2-((4-chloro-5-fluoro-2-(2-methoxy-7-methylquinoxalin-5-yl)benzo[d]thiazol-6-yl)oxy)ethoxy)carbonyl)amino)-1-methyl-1H-pyrrole-2-carboxylate]: the IC50 was 8.7 nM.

Consider `COCc1cnc2c(-c3nc4c(C#N)cc(OC)cc4s3)cc(C)cc2n1` [Example 103, 6-methoxy-2-(2-(methoxymethyl)-7-methylquinoxalin-5-yl)benzo[d]thiazole-4-carbonitrile], for which the IC50 came to 2.5 nM.

Consider `COc1cnc2c(-c3nc4cc(F)c(O[C@@H](C)[C@@H](C)OC(=O)Nc5cnc(C(=O)NCC6(O)CCC6)nc5)cc4s3)cc(C)cc2n1` [Example 463, (2R,3S)-3-((5-fluoro-2-(2-methoxy-7-methylquinoxalin-5-yl)benzo[d]thiazol-6-yl)oxy)butan-2-yl (2-(((1-hydroxycyclobutyl)methyl)carbamoyl)pyrimidin-5-yl)carbamate], for which the IC50 turned out to be 0.7 nM.

In the case of `COc1cnc2c(-c3nc4cc(F)c(O[C@@H](C)[C@@H](C)OC(=O)Nc5ccc(C(=O)O)nc5)cc4s3)cc(C)cc2n1` [Example 523, 5-(((((2R,3S)-3-((5-fluoro-2-(2-methoxy-7-methylquinoxalin-5-yl)benzo[d]thiazol-6-yl)oxy)butan-2-yl)oxy)carbonyl)amino)picolinic acid, TFA], the IC50 was 2.6 nM.

In the case of `COc1cnc2c(-c3nc4cc(F)c(O[C@@H](C)[C@@H](C)OC(=O)Nc5cncc(C#N)c5)cc4s3)cc(Cl)cc2c1` [Example 786, (2R,3S)-3-((2-(6-chloro-3-methoxyquinolin-8-yl)-5-fluorobenzo[d]thiazol-6-yl)oxy)butan-2-yl (5-cyanopyridin-3-yl)carbamate], the IC50 came out at 2.2 nM.

For `COCc1cnc2c(-c3nc4ccc(OCCNS(=O)(=O)c5ccccc5)cc4s3)cc(C)cc2n1` [Example 106, N-(2-(2-(2-(methoxymethyl)-7-methylquinoxalin-5-yl)benzo[d]thiazol-6-yloxy)ethyl)benzenesulfonamide], the IC50 is 1.6 nM.

Consider `COc1cnc2c(-c3nc4c(C)c(F)c(OC)cc4s3)cc(C)cc2n1` [Example 294, 5-fluoro-6-methoxy-2-(2-methoxy-7-methylquinoxalin-5-yl)-4-methylbenzo[d]thiazole], for which the IC50 is 5.2 nM.

On to `COc1cnc2c(-c3nc4cc(F)c(OCCOC(=O)Nc5cccnc5)nc4s3)cc(C)cc2n1` [Example 810, 2-((6-fluoro-2-(2-methoxy-7-methylquinoxalin-5-yl)thiazolo[5,4-b]pyridin-5-yl)oxy)ethyl pyridin-3-ylcarbamate], for which the IC50 was found to be 6.9 nM.

As a reminder, the IC50 is the midpoint of a concentration-inhibition curve.

Values taken from patent publication US12060347B2 (BRISTOL-MYERS SQUIBB COMPANY, priority 2016, dated 2024).
